In PubChem BioAssay (NCI):
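Assay format: 96-well plates, 48-hour exposure. The concentration for 50% growth inhibition is given as GI50. TGI: concentration producing complete growth inhibition.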

Tested on: MDA-MB-468 breast
Assay: NCI-60 cell line screen, 48 h

SMILES	GI50	TGI
C[C@]12CC[C@@H]3c4ccc(Oc5nc(N6CC6)nc(N6CC6)n5)cc4CC[C@H]3[C@@H]1CCC2=O	2000 nM	12.6 µM
COc1cc(Cn2c(-c3ccccc3)cc3c2-c2oncc2CC3)cc(OC)c1OC	298 nM	2.21 µM
C[C@]12CC[C@@H]3c4ccc(O)cc4C[C@@H](CCCCCCCCCS(=O)CCCC(F)(F)C(F)(F)F)[C@H]3[C@@H]1CC[C@@H]2O (some centres undefined)	> 100000 nM	> 100 µM
CCCNC(=S)N/N=C(\C)c1ccccn1	< 10 nM	0.109 µM
COc1ccc(S(=O)(=O)N(Cc2ccc3c(n2)C=CC(C)(C)O3)C2CCC2)cc1OC	< 10 nM	< 0.01 µM
CC[C@H](C)[C@H](NC(=O)[C@H]1CCCCN1C)C(=O)N(C)[C@H](CCc1nc(C(=O)N[C@@H](Cc2ccccc2)C[C@H](C)C(=O)OC)cs1)C(C)C	69.6 nM	–
O=C(CCCSc1nc(-c2ccc(Cl)cc2)cc(-c2ccc(Cl)cc2)n1)NO	1420 nM	3.48 µM
Cc1cc(C2CCCCC2)n(O)c(=O)c1	1720 nM	8.96 µM
Cn1cc(-c2csc(-c3cccc(F)c3)n2)c2cccnc21	20000 nM	55.6 µM
Nc1nccc(-c2c(-c3ccc(F)cc3)ncn2CCCN2CCOCC2)n1	> 6390 nM	> 25 µM
Cn1cc(C2=C(c3cn(C)c4c(N)cccc34)C(=O)NC2=O)c2ccccc21	1280 nM	> 25 µM
NC(N)=NC(N)=Nc1cc2ccccc2c2ccccc12	2810 nM	14.3 µM
COc1ccc(-n2c(SCc3cc(OC)c(OC)c(OC)c3)nc3ccc(C)cc3c2=O)cc1	3390 nM	48.3 µM
O=C(C[C@@H](C(=O)NCc1cccc(C(F)(F)F)c1)N1C(=O)[C@@H](N2C(=O)OC[C@@H]2c2ccccc2)[C@H]1/C=C/c1ccccc1)NC1CCN(Cc2ccccc2)CC1	2660 nM	18.4 µM
COc1ccc(C(=O)/C=C/c2cccnc2Nc2cc(OC)c(OC)c(OC)c2)cc1	551 nM	2.76 µM
COC(=O)[C@]12CCC(C)(C)C[C@H]1C1=CC[C@@H]3[C@@]4(C)C/C(=C/c5cccnc5)C(=O)C(C)(C)[C@@H]4CC[C@@]3(C)[C@]1(C)CC2	12300 nM	47.2 µM
COc1cc(-c2c(C#N)c(N)n3c(nc4ccccc43)c2C#N)cc(Br)c1OC	5540 nM	> 100 µM
CC(C)CSc1nc(Nc2ccccc2)c(C#N)c(-c2ccc(F)cc2)n1	3070 nM	17.4 µM

SMILES	GI50	TGI
CN1C(=O)N(c2ccccc2)C2N=C(N/N=C/c3ccccc3)SC21 (centres undefined)	510 nM	> 100 µM
Cc1cc(C)cc(Nc2cc(C)nc3nc(C(F)(F)F)nn23)c1	8300 nM	> 100 µM
COc1ccc(-c2nc(-c3nc4ccc(C)cc4[nH]3)c3ccccn23)cc1	2320 nM	7.13 µM
COc1ccc(C2CC(=O)c3c(O)c(OC)c(OC)c(OC)c3O2)c(O)c1 (centres undefined)	83.1 nM	36.9 µM
CC12CCCC(CC(=O)c3[nH]c4ccccc4c31)C2 (centres undefined)	375 nM	4.16 µM
C[C@]12CC[C@@H]3c4ccc(O)cc4CC[C@H]3[C@@H]1CC[C@@H]2NS(=O)(=O)c1ccc(C(F)(F)F)cc1	2180 nM	6.23 µM
COc1cccc(NCc2nnc(Nc3ccc(Cl)cc3)c3ccccc23)c1	1050 nM	4.73 µM
CCCCC/C=C/C/C=C/CCCCCCCC1=NC(C)(C)CN1C(C)C	1370 nM	2.72 µM
Cn1cc(C2=C(c3cn(CCCN=C(N)N)c4ccccc34)C(=O)NC2=O)c2ccccc21	> 11200 nM	> 25 µM
CN(C)CCNc1ccc2ncc(C#Cc3cncc(C(=O)Nc4ccc(CN5CCN(C)CC5)c(C(F)(F)F)c4)c3)n2n1	617 nM	1.41 µM
COc1ccc(-c2cc3c(nn2)-c2ccccc2C3=O)cc1	> 100000 nM	> 100 µM
Cc1[nH]c(N=Nc2ccccc2)nc1N=Nc1ccccc1	1920 nM	5.99 µM
COc1cc([C@@H]2c3cc4c(cc3C(O[C@@H]3O[C@@H]5CO[C@@H](c6cccs6)OC5[C@H](O)[C@H]3O)C3COC(=O)[C@@H]32)OCO4)cc(OC)c1O (some centres undefined)	91.4 nM	0.302 µM
CCCCNC(=O)NS(=O)(=O)c1ccc(N2N=C(c3ccc(C)cc3C)CC2c2ccc(N(C)C)cc2)cc1 (centres undefined)	2220 nM	5.82 µM
COc1ccc(OC(=O)O[C@H]2[C@H](O[C@H]3[C@@H](O)COC(O[C@H]4C[C@H]5[C@@H]6CC=C7C[C@@H](O)CC[C@]7(C)[C@H]6CC[C@]5(C)[C@H]4[C@H](C)C(=O)CCC(C)C)[C@@H]3OC(C)=O)OC[C@@H](O)[C@@H]2O)cc1 (some centres undefined)	37.3 nM	4.94 µM
CCOC(=O)/C(O)=C(/C=NC(=S)c1ccncc1)C(=O)OCC	> 100000 nM	> 100 µM
C=C1C(=O)O[C@H]2[C@H]1CC/C(COC(=O)/C=C\C(=O)NCc1ccc(Cn3c(=O)sn(-c4ccc(C#N)cc4)c3=O)cc1)=C\CC[C@@]1(C)O[C@@H]21	735 nM	1.67 µM
